Like-named read-outs stand apart in the source and are kept apart here.
What was measured:
Test in all cases: MIC assay with different strains, Example 35
Assay type in all cases: cell-based
[1] = system: Burkholderia cepacia (ATCC 25416)
Description: (§1) The minimum inhibitory concentration (MIC) is used to determine the lowest concentration of a test product claiming antimicrobial effects that will inhibit growth of a microorganism. Each microbial suspension was adjusted approximately 10^7 to 10^8 colony forming units (CFU) per mL and labeled as the stock suspension. The stock suspension was further diluted to 1:200 in Mueller Hinton broth to obtain a test sample having a concentration of […]. The test sample was then tested for MIC as described in M202.R02. After incubation, each tube was examined for turbidity, which indicated growth or no growth. For the tubes where the product rendered the media turbid, an aliquot of the media was streaked onto agar plates to confirm growth or lack of growth.

[2] = system: Klebsiella oxytoca (ATCC 43165)
Description: as §1

[3] = system: Proteus mirabilis (ATCC 7002)
Description: as §1

[4] = system: Corynebacterium jeikeium (ATCC 43734)
Description: as §1

[5] = system: Candida albicans (ATCC 10231)
Description: as §1

[6] = system: Haemophilus influenza (ATCC 19418)
Description: as §1

[7] = system: Staphylococcus aureus (MRSA) (ATCC 33592)
Description: as §1

[8] = system: Enterococcus faecalis (ATCC 19433)
Description: as §1

[9] = system: Escherichia coli (ATCC 11229)
Description: as §1

[10] = system: Enterobacter cloacae (ATCC 13047)
Description: as §1

[11] = system: Micrococcus luteus (ATCC 4698)
Description: as §1

[12] = system: Staphylococcus haemolyticus (ATCC 29970)
Description: as §1

[13] = system: Staphylococcus hominis (ATCC 27844)
Description: as §1

[14] = system: Acinetobacter baumannii (ATCC 19606)
Description: as §1

[15] = system: Streptococcus pneumonia (ATCC 6303)
Description: as §1

## CCCCCCCCCCCCOC(=O)C(C)NC.Cl (stereo not drawn) [Nex-59, Dodecyl 2-(methylamino)propanoate hydrochloride]
[1]; Burkholderia cepacia, ATCC25416, Table 19 summary, read-out: MIC
  MIC: 25000 µg/mL
[1]; Example 35
  MIC: 2.5%
[1]; Sample Concentration 0.01%
  Growth/no growth: Growth
[1]; Sample Concentration 0.02%
  Growth/no growth: Growth
[1]; Sample Concentration 0.04%
  Growth/no growth: Growth
[1]; Sample Concentration 0.08%
  Growth/no growth: Growth
[1]; Sample Concentration 0.16%
  Growth/no growth: Growth
[1]; Sample Concentration 0.32%
  Growth/no growth: Growth
[1]; Sample Concentration 0.63%
  Growth/no growth: Growth
[1]; Sample Concentration 1.25%
  Growth/no growth: Growth
[2]; Example 35
  MIC: 0.63%
[2]; Klebsiella oxytoca, ATCC 43165 / ATCC 43615, Table 19 summary, strain printed ATCC 43615, read-out: MIC
  MIC: 6300 µg/mL
[2]; Sample Concentration 0.01%
  Growth/no growth: Growth
[2]; Sample Concentration 0.02%
  Growth/no growth: Growth
[2]; Sample Concentration 0.04%
  Growth/no growth: Growth
[2]; Sample Concentration 0.08%
  Growth/no growth: Growth
[2]; Sample Concentration 0.16%
  Growth/no growth: Growth
[2]; Sample Concentration 0.32%
  Growth/no growth: Growth
[2]; Sample Concentration 0.63%
  Growth/no growth: No
[2]; Sample Concentration 1.25%
  Growth/no growth: No
[2]; Sample Concentration 2.5%
  Growth/no growth: No
[3]; Example 35
  MIC: 0.32%
[3]; Proteus mirabilis, ATCC7002, Table 19 summary, read-out: MIC
  MIC: 3200 µg/mL
[3]; Sample Concentration 0.01%
  Growth/no growth: Growth
[3]; Sample Concentration 0.02%
  Growth/no growth: Growth
[3]; Sample Concentration 0.04%
  Growth/no growth: Growth
[3]; Sample Concentration 0.08%
  Growth/no growth: Growth
[3]; Sample Concentration 0.16%
  Growth/no growth: Growth
[4]; Corynebacterium jeikeium, ATCC43734, Table 19 summary, read-out: MIC
  MIC: ≥ 100 µg/mL
[4]; Example 35
  MIC: ≦0.01%
[4]; Sample Concentration 0.01%
  Growth/no growth: No
[4]; Sample Concentration 0.02%
  Growth/no growth: No
[4]; Sample Concentration 0.04%
  Growth/no growth: No
[4]; Sample Concentration 0.08%
  Growth/no growth: No
[4]; Sample Concentration 0.16%
  Growth/no growth: No
[4]; Sample Concentration 0.32%
  Growth/no growth: No
[4]; Sample Concentration 0.63%
  Growth/no growth: No
[4]; Sample Concentration 1.25%
  Growth/no growth: No
[4]; Sample Concentration 2.5%
  Growth/no growth: No
[5]; Candida albicans, ATCC10231, Table 19 summary, read-out: MIC
  MIC: 400 µg/mL
[5]; Example 35
  MIC: 0.04%
[5]; Sample Concentration 0.01%
  Growth/no growth: Growth
[5]; Sample Concentration 0.02%
  Growth/no growth: Growth
[6]; Example 35
  MIC: ≦0.01%
[6]; Haemophilus, ATCC19418
  MIC: ≥ 100 µg/mL
[6]; Sample Concentration 0.01%
  Growth/no growth: No
[6]; Sample Concentration 0.02%
  Growth/no growth: No
[6]; Sample Concentration 0.04%
  Growth/no growth: No
[6]; Sample Concentration 0.08%
  Growth/no growth: No
[6]; Sample Concentration 0.16%
  Growth/no growth: No
[6]; Sample Concentration 0.32%
  Growth/no growth: No
[6]; Sample Concentration 0.63%
  Growth/no growth: No
[6]; Sample Concentration 1.25%
  Growth/no growth: No
[6]; Sample Concentration 2.5%
  Growth/no growth: No
[7]; Example 35
  MIC: 0.02%
[7]; Sample Concentration 0.01%
  Growth/no growth: Growth
[7]; Sample Concentration 0.02%
  Growth/no growth: No
[7]; Sample Concentration 0.04%
  Growth/no growth: No
[7]; Sample Concentration 0.08%
  Growth/no growth: No
[7]; Sample Concentration 0.16%
  Growth/no growth: No
[7]; Sample Concentration 0.32%
  Growth/no growth: No
[7]; Sample Concentration 0.63%
  Growth/no growth: No
[7]; Sample Concentration 1.25%
  Growth/no growth: No
[7]; Sample Concentration 2.5%
  Growth/no growth: No
[7]; Staphylococcus aureus, Table 19 summary, read-out: MIC
  MIC: 200 µg/mL
[8]; Enterococcus faecalis, ATCC19433, Table 19 summary, read-out: MIC
  MIC: ≥ 100 µg/mL
[8]; Example 35
  MIC: ≦0.01%
[8]; Sample Concentration 0.01%
  Growth/no growth: No
[8]; Sample Concentration 0.02%
  Growth/no growth: No
[8]; Sample Concentration 0.04%
  Growth/no growth: No
[8]; Sample Concentration 0.08%
  Growth/no growth: No
[8]; Sample Concentration 0.16%
  Growth/no growth: No
[8]; Sample Concentration 0.32%
  Growth/no growth: No
[8]; Sample Concentration 0.63%
  Growth/no growth: No
[8]; Sample Concentration 1.25%
  Growth/no growth: No
[8]; Sample Concentration 2.5%
  Growth/no growth: No
[9]; Escherichia coli, ATCC11229, Table 19 summary, read-out: MIC
  MIC: 800 µg/mL
[9]; Example 35
  MIC: 0.08%
[9]; Sample Concentration 0.01%
  Growth/no growth: Growth
[9]; Sample Concentration 0.02%
  Growth/no growth: Growth
[9]; Sample Concentration 0.04%
  Growth/no growth: Growth
[10]; Enterobacter cloacae, ATCC13047, Table 19 summary, read-out: MIC
  MIC: 1600 µg/mL
[10]; Example 35
  MIC: 0.16%
[10]; Sample Concentration 0.01%
  Growth/no growth: Growth
[10]; Sample Concentration 0.02%
  Growth/no growth: Growth
[10]; Sample Concentration 0.04%
  Growth/no growth: Growth
[10]; Sample Concentration 0.08%
  Growth/no growth: Growth
[11]; Example 35
  MIC: 0.02%
[11]; Micrococcus luteus, ATCC4698, Table 19 summary, read-out: MIC
  MIC: 200 µg/mL
[11]; Sample Concentration 0.01%
  Growth/no growth: Growth
[11]; Sample Concentration 0.02%
  Growth/no growth: No
[11]; Sample Concentration 0.04%
  Growth/no growth: No
[11]; Sample Concentration 0.08%
  Growth/no growth: No
[11]; Sample Concentration 0.16%
  Growth/no growth: No
[11]; Sample Concentration 0.32%
  Growth/no growth: No
[11]; Sample Concentration 0.63%
  Growth/no growth: No
[11]; Sample Concentration 1.25%
  Growth/no growth: No
[11]; Sample Concentration 2.5%
  Growth/no growth: No
[12]; Example 35
  MIC: 0.02%
[12]; Sample Concentration 0.01%
  Growth/no growth: Growth
[12]; Sample Concentration 0.02%
  Growth/no growth: No
[12]; Sample Concentration 0.04%
  Growth/no growth: No
[12]; Sample Concentration 0.08%
  Growth/no growth: No
[12]; Sample Concentration 0.16%
  Growth/no growth: No
[12]; Sample Concentration 0.32%
  Growth/no growth: No
[12]; Sample Concentration 0.63%
  Growth/no growth: No
[12]; Sample Concentration 1.25%
  Growth/no growth: No
[12]; Sample Concentration 2.5%
  Growth/no growth: No
[12]; Staphylococcus haemolyticus, ATCC29970, Table 19 summary, read-out: MIC
  MIC: 200 µg/mL
[13]; Example 35
  MIC: 0.02%
[13]; Sample Concentration 0.01%
  Growth/no growth: Growth
[13]; Sample Concentration 0.02%
  Growth/no growth: No
[13]; Sample Concentration 0.04%
  Growth/no growth: No
[13]; Sample Concentration 0.08%
  Growth/no growth: No
[13]; Sample Concentration 0.16%
  Growth/no growth: No
[13]; Sample Concentration 0.32%
  Growth/no growth: No
[13]; Sample Concentration 0.63%
  Growth/no growth: No
[13]; Sample Concentration 1.25%
  Growth/no growth: No
[13]; Sample Concentration 2.5%
  Growth/no growth: No
[13]; Staphylococcus hominis, ATCC27844, Table 19 summary, read-out: MIC
  MIC: 200 µg/mL
[14]; Acinetobacter baumannii, ATCC19606, Table 19 summary, read-out: MIC
  MIC: 800 µg/mL
[14]; Example 35
  MIC: 0.08%
[14]; Sample Concentration 0.01%
  Growth/no growth: Growth
[14]; Sample Concentration 0.02%
  Growth/no growth: Growth
[14]; Sample Concentration 0.04%
  Growth/no growth: Growth
[15]; Example 35
  MIC: 0.32%
[15]; Sample Concentration 0.01%
  Growth/no growth: Growth
[15]; Sample Concentration 0.02%
  Growth/no growth: Growth
[15]; Sample Concentration 0.04%
  Growth/no growth: Growth
[15]; Sample Concentration 0.08%
  Growth/no growth: Growth
[15]; Sample Concentration 0.16%
  Growth/no growth: Growth
[15]; Streptococcus pneumoniae, ATCC6303, Table 19 summary, read-out: MIC
  MIC: 3200 µg/mL

— patent publication US20140357713A1, “ANTIMICROBIAL COMPOUNDS AND METHODS OF USE” (NexMed Holdings, Inc., priority 2012, published 2014)
